This passage reports IC50 results from patent publication US9878986B2, “Compounds for selective histone deacetylase inhibitors, and pharmaceutical composition comprising the same” (CHONG KUN DANG PHARMACEUTICAL CORP., priority 2013, dated 2018).

Structures are written as SMILES.

Assay [1] deals with T1, HDAC 6 (Homo sapiens, UniProt Q9UBN7).
T1 sequence (Q9UBN7 1-1215): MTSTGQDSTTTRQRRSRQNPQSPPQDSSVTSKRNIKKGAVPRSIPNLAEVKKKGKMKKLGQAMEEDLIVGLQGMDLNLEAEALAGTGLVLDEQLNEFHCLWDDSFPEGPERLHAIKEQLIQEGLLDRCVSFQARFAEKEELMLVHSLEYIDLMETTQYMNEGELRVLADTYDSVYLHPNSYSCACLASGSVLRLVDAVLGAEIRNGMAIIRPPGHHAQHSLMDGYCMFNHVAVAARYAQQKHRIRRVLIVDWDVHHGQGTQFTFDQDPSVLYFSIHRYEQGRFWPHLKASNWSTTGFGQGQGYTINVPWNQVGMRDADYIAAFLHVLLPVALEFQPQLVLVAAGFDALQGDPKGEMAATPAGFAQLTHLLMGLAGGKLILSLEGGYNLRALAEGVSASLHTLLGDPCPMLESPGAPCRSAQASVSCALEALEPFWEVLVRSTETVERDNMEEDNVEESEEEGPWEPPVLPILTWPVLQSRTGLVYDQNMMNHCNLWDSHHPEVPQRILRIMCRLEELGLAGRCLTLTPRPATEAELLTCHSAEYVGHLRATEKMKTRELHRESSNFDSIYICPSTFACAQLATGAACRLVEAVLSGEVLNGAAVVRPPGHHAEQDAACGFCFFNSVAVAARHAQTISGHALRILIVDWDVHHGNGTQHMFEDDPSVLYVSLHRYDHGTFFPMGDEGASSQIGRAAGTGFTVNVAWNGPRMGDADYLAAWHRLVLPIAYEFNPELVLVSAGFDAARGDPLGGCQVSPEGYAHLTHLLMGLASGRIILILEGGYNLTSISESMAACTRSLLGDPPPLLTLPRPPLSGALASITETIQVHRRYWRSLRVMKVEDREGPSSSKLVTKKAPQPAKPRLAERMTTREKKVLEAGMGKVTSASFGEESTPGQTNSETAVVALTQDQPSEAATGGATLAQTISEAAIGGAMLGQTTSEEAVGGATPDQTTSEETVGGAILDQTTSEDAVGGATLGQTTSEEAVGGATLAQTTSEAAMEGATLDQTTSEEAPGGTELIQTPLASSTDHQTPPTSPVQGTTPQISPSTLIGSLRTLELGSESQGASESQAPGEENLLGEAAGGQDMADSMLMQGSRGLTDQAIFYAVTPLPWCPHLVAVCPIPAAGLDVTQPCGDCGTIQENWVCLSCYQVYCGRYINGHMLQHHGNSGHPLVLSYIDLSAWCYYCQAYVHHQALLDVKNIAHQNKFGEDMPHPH
Nature of the assay: Test of HDAC activities, HDAC6 (fluorimetric). Set-up: purchased Calbiochem 382180. Type of assay: biochemical. The following applies: samples at 0.1, 1, 10, 100, 1000 nM; 37° C. 60 minutes; fluorescence Ex 390, Em 460; read-out: HDAC inhibitory activities, HDAC6. On the procedure:
(§1) The HDAC inhibitory activities of test materials were measured using the HDAC1 Fluorimetric Drug Discovery Assay Kit (Enzolifesciences: BML-AK511) and HDAC6 human recombinant (Calbiochem: 382180). In the HDAC1 assay, the samples were treated with concentrations of 100, 1000, and 10000 nM, and in the HDAC6 assay, the samples were treated with concentrations of 0.1, 1, 10, 100, and 1000 nM. After the treatment of the samples, the samples were reacted at 37° C. for 60 minutes, treated with a developer, and then reacted at 37° C. for 30 minutes. Then, the fluorescence intensity (Ex 390, Em 460) was measured using the FlexStation 3 (Molecular device).

Assay [2] deals with HDAC1 (Homo sapiens, UniProt Q13547). Nature of the assay: Test of HDAC activities, HDAC1 Fluorimetric Drug Discovery Assay Kit. Type of assay: biochemical. Set-up: purchased Enzolifesciences BML-AK511. The following applies: samples at 100, 1000, 10000 nM; 37° C. 60 minutes; fluorescence Ex 390, Em 460; read-out: HDAC inhibitory activities, HDAC1. The protocol:
as §1

Chain of HDAC1 (Q13547 whole entry): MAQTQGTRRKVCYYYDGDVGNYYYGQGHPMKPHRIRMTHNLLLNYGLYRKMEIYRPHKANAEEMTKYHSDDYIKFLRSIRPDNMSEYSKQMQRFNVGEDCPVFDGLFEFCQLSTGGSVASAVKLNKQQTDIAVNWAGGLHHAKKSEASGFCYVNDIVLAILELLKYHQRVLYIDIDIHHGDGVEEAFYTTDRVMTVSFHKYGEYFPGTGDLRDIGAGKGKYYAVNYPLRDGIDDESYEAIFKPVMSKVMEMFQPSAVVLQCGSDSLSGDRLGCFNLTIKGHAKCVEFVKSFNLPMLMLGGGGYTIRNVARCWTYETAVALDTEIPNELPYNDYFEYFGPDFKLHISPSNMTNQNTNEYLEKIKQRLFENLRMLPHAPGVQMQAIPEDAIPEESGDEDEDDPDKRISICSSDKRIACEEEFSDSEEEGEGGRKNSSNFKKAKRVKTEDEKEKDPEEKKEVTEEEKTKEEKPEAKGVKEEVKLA

For `O=C(NO)c1ccc(CN(C(=O)N2CCOCC2)c2ccc(Br)cc2)cc1` [Compound 372, N-(4-bromophenyl)-N-(4-(hydroxycarbamoyl)benzyl)morpholine-4-carboxamide], the results for the IC50 in assay [1] and in assay [2] were 1 nM and 212 nM, respectively.
The matching figures for `O=C(NO)c1ccc(CN(C(=O)N2CCOCC2)c2ccc(C(F)(F)F)cc2)cc1` [Compound 385, N-(4-(hydroxycarbamoyl)benzyl)-N-(4-(trifluoromethyl)phenyl)morpholine-4-carboxamide]: 5 nM and 976 nM.
The like results for `CC1CN(C(=O)N(Cc2ccc(C(=O)NO)cc2)c2cccc(C(F)(F)F)c2)CC(C)O1` (stereo not shown) [Compound 386, N-(4-(hydroxycarbamoyl)benzyl)-2,6-dimethyl-N-(3-(trifluoromethyl)phenyl)morpholine-4-carboxamide] were, in that order, 6 nM and 4040 nM.
The like results for `O=C(NO)c1ccc(CN(C(=O)N2CCCCC2)c2ccc(Cl)c(C(F)(F)F)c2)cc1` [Compound 389, N-(4-chloro-3-(trifluoromethyl)phenyl)-N-(4-(hydroxycarbamoyl)benzyl)piperidine-1-carboxamide] were, in that order, 37 nM and 7830 nM.
Turning to `CC1CCN(C(=O)N(Cc2ccc(C(=O)NO)cc2)c2ccc(Cl)c(C(F)(F)F)c2)CC1` [Compound 390, N-(4-chloro-3-(trifluoromethyl)phenyl)-N-(4-(hydroxycarbamoyl)benzyl)-4-methylpiperidine-1-carboxamide], the figures for the IC50 in assay [1] and in assay [2] were 20 nM and 6220 nM, respectively.
In the case of `O=C(NO)c1ccc(CN(C(=O)N2CCOCC2)c2ccc(Cl)c(C(F)(F)F)c2)cc1` [Compound 391, N-(4-chloro-3-(trifluoromethyl)phenyl)-N-(4-(hydroxycarbamoyl)benzyl)morpholine-4-carboxamide], the IC50 was found to be 3 nM in assay [1] and 2120 nM in assay [2].
As for `CC1CN(C(=O)N(Cc2ccc(C(=O)NO)cc2)c2ccc(Cl)c(C(F)(F)F)c2)CC(C)O1` (stereo not shown) [Compound 392, N-(4-chloro-3-(trifluoromethyl)phenyl)-N-(4-(hydroxycarbamoyl)benzyl)-2,6-dimethylmorpholine-4-carboxamide], the IC50 is 5 nM in assay [1] and 2870 nM in assay [2].
The like results for `CN1CCN(C(=O)N(Cc2ccc(C(=O)NO)cc2)c2ccc(Cl)c(C(F)(F)F)c2)CC1` [Compound 393, N-(4-chloro-3-(trifluoromethyl)phenyl)-N-(4-(hydroxycarbamoyl)benzyl)-4-methylpiperazine-1-carboxamide] were, in that order, 5 nM and 1110 nM.
Take `CCN1CCN(C(=O)N(Cc2ccc(C(=O)NO)cc2)c2ccc(Cl)c(C(F)(F)F)c2)CC1` [Compound 394, N-(4-chloro-3-(trifluoromethyl)phenyl)-4-ethyl-N-(4-(hydroxycarbamoyl)benzyl)piperazine-1-carboxamide]: the IC50 came out at 11 nM in assay [1] and 2590 nM in assay [2].
In the case of `O=C(NO)c1ccc(CN(C(=O)N2CCOCC2)c2cccc(-c3cc(F)cc(F)c3)c2)cc1` [Compound 395, N-(3′,5′-difluorobiphenyl-3-yl)-N-(4-(hydroxycarbamoyl)benzyl)morpholine-4-carboxamide], the figures for the IC50 in assay [1] and in assay [2] were 5 nM and 489 nM, respectively.
For the molecule `CN(C)c1ccc(-c2cccc(N(Cc3ccc(C(=O)NO)cc3)C(=O)N3CCOCC3)c2)cn1` [Compound 396, N-(3-(6-(dimethylamino)pyridin-3-yl)phenyl)-N-(4-(hydroxycarbamoyl)benzyl)morpholine-4-carboxamide], the results for the IC50 in assay [1] and in assay [2] were 5 nM and 257 nM, respectively.
The like results for `O=C(NO)c1ccc(CN(C(=O)N2CCOCC2)c2cccc(-c3cncnc3)c2)cc1` [Compound 397, N-(4-(hydroxycarbamoyl)benzyl)-N-(3-(pyrimidin-5-yl)phenyl)morpholine-4-carboxamide] were, in that order, 14 nM and 1000 nM.
The matching figures for `O=C(NO)c1ccc(CN(C(=O)N2CCOCC2)c2cccc(-c3cc(C(F)(F)F)cc(C(F)(F)F)c3)c2)cc1` [Compound 398, N-(3′,5′-bis(trifluoromethyl)biphenyl-3-yl)-N-(4-(hydroxycarbamoyl)benzyl)morpholine-4-carboxamide]: 32 nM and 4450 nM.
The matching figures for `O=C(NO)c1ccc(CN(C(=O)N2CCOCC2)c2cccc(-c3ccc4c(c3)OCCO4)c2)cc1` [Compound 399, N-(3-(2,3-dihydrobenzo[b][1,4]dioxin-6-yl)phenyl)-N-(4-(hydroxycarbamoyl)benzyl)morpholine-4-carboxamide]: 7 nM and 302 nM.
Consider `COc1cc(-c2cccc(N(Cc3ccc(C(=O)NO)cc3)C(=O)N3CCOCC3)c2)cc(OC)c1OC` [Compound 400, N-(4-(hydroxycarbamoyl)benzyl)-N-(3′,4′,5′-trimethoxybiphenyl-3-yl)morpholine-4-carboxamide], for which the IC50 worked out at 8 nM in assay [1] and 770 nM in assay [2].
`Cc1cccc(C)c1-c1cccc(N(Cc2ccc(C(=O)NO)cc2)C(=O)N2CCOCC2)c1` [Compound 401, N-(2′,6′-dimethylbiphenyl-3-yl)-N-(4-(hydroxycarbamoyl)benzyl)morpholine-4-carboxamide]: the IC50 in assay [1] came to 8 nM; in assay [2], 1790 nM.
The matching figures for `O=C(NO)c1ccc(CN(C(=O)N2CCOCC2)c2cccc(-c3ccoc3)c2)cc1` [Compound 402, N-(3-(furan-3-yl)phenyl)-N-(4-(hydroxycarbamoyl)benzyl)morpholine-4-carboxamide]: 3 nM and 170 nM.
The like results for `O=C(NO)c1ccc(CN(C(=O)N2CCOCC2)c2cccc(C3=CCOCC3)c2)cc1` [Compound 403, N-(3-(3,6-dihydro-2H-pyran-4-yl)phenyl)-N-(4-(hydroxycarbamoyl)benzyl)morpholine-4-carboxamide] were, in that order, 1 nM and 453 nM.
For `CN1CC=C(c2cccc(N(Cc3ccc(C(=O)NO)cc3)C(=O)N3CCOCC3)c2)CC1` [Compound 404, N-(4-(hydroxycarbamoyl)benzyl)-N-(3-(1-methyl-1,2,3,6-tetrahydropyridin-4-yl)phenyl) morpholine-4-carboxamide], the IC50 in assay [1] amounted to 16 nM; in assay [2], 3500 nM.
The like results for `CC(C)(C)OC(=O)N1CC=C(c2cccc(N(Cc3ccc(C(=O)NO)cc3)C(=O)N3CCOCC3)c2)CC1` [Compound 405, tert-butyl 4-(3-(N-(4-(hydroxycarbamoyl)benzyl)morpholine-4-carboxamido)phenyl)-5,6-dihydropyridine-1(2H)-carboxylate] were, in that order, 3 nM and 1450 nM.
The like results for `O=C(NO)c1ccc(CN(C(=O)N2CCOCC2)c2ccc(F)cc2F)cc1` [Compound 413, N-(2,4-difluorophenyl)-N-(4-(hydroxycarbamoyl)benzyl)morpholine-4-carboxamide] were, in that order, 0.4 nM and 860 nM.
The like results for `O=C(NO)c1ccc(CN(C(=O)N2CCCCC2)c2ccc(F)cc2F)cc1` [Compound 414, N-(2,4-difluorophenyl)-N-(4-(hydroxycarbamoyl)benzyl)piperidine-1-carboxamide] were, in that order, 1 nM and 1170 nM.
On to `CC1CN(C(=O)N(Cc2ccc(C(=O)NO)cc2)c2ccc(F)cc2F)CC(C)O1` (stereo not shown) [Compound 415, N-(2,4-difluorophenyl)-N-(4-(hydroxycarbamoyl)benzyl)-2,6-dimethylmorpholine-4-carboxamide], for which the IC50 was 5 nM in assay [1] and 1220 nM in assay [2].
